{
  "source": "patent US10766855B2",
  "about": "“Hydroxamate triterpenoid derivatives” (VIVACELL BIOTECHNOLOGY ESPANA S.L., priority 2016, dated 2020)",
  "key": {"HIF-1α": {"test_system": "HIF-1α", "test": "HIF-1α transactivation assay in NIH-3T3-EPO-Luc fibroblast cells", "assay_type": "cell-based", "conditions": "6 h stimulation", "description": "To investigate the biological activities of the different compounds, HIF-1α transactivation assays were performed either in NIH-3T3-EPO-Luc cells (Table II) or in HaCaT-EPO-luc cells (FIG. 2). The NIH3T3-EPO-luc and HaCaT-EPO-luc cells have been stably transfected with the plasmid Epo-Luc plasmid. The EPO-Hypoxia Response Element (HRE)-luciferase reporter plasmid contains three copies of the HRE consensus sequence from the promoter of the erythropoietin gene fused to the luciferase gene. NIH3T3-EPO-luc cells were maintained at 37° C. in a humidified atmosphere containing 5% CO2 in DMEM supplemented with 10% fetal calf serum (FBS), and 1% (v/v) penicillin/streptomycin. DFX was purchased from Sigma-Aldrich (USA). Cells (1×10^4/well in 96 well plates) were seeded the day before the assay. […] After six hours of stimulation the cells were lysed in 25 mM Tris-phosphate pH 7.8, 8 mM MgCl2, 1 mM DTT, 1% Triton X-100, and 7% glycerol during 15 min at RT in a horizontal shaker. Luciferase activity is measured using a microplate luminometer (Berthold) following the instructions of the luciferase assay kit (Promega, Madison, Wis., USA)."}, "[1]": {"test_system": "STHdhQ7/Q7 and STHdhQ111/Q111 striatal cells", "test": "3-NP-induced cytotoxicity in striatal Q7 and Q111 cells (YOYO-1)", "assay_type": "cell-based, mouse", "conditions": "6 h pre-treatment, 3-NP 10 mM 24 h; compound VII increasing concentrations, DFX 50 μM", "description": "FIG. 8. Compound VII abrogates 3-NP toxicity in Q7 and […] striatal cells. Q7 and Q111 Striatal cells were pretreated with increasing concentrations of compound VII for 6 h and then exposed to 3-NP (10 mM) for an additional 24 h, after which YOYO-1 staining was used to investigate cell death. Cell death was determined using the IncuCyte HD software and the treatment with 3-NP alone in Q111 cells was considered as 100% of cell death.\nTo investigate whether HIF activation in striatal Q7 and Q111 cells is sufficient to protect striatal neurons (provide neuroprotection), the effect of compound VII on 3-NP induced death was examined. […]\nSTHdh^Q7/Q7 and STHdh^Q111/Q111 cells (10^4 cells/well in 96-well plates) were incubated with YOYO-1 (Life Technologies) and then treated with 3-NP (10 mM) and or DFX (50 μM) as a positive control for PHDs inhibition. […] The uptake of YOYO-1 by damaged cells correlates with the increase in YOYO-1 fluorescence. Treated cells are placed in an Incucyte FLR imaging system, and the YOYO-1 fluorescence is measured after 24 h of 3-NP treatment. Following the incubation period object counting analysis was performed using the Incucyte FLR software to calculate the total number of YOYO-1 fluorescence positive cells and total DNA containing objects (end point). […]"}},
  "data": [
    {"molecule": "C=C(C)[C@@H]1CC[C@]2(C(=O)NO)CC[C@]3(C)[C@H](CC[C@@H]4[C@@]5(C)CC[C@H](O)C(C)(C)[C@@H]5CC[C@]43C)[C@@H]12", "note": "[Compound VII, (3β) 3-Hydroxy-N-hydroxy-lup-20(29)-en-28-amide]", "values": [
      {"measurement": "Efficacy HIF-1α (IRA coefficient)", "setting": "HIF-1α; relative to 150 μM DFX", "value": 0.36},
      {"measurement": "EC50", "setting": "HIF-1α; Fibroblast, read-out: Potency EC50 HIF-1α", "value": 4.81, "unit": "µM"},
      {"measurement": "neuroprotection to 3-NP-induced cytotoxicity (cell death)", "setting": "[1]", "value": "clearly provided a significant level of neuroprotection"}
    ]}
  ]
}
